What was measured:
[1] = molecular target: Serine/threonine-protein kinase/endoribonuclease IRE1 (Homo sapiens) (UniProt O75460); conditions: Compound concentration 1000.0 nM
[2] = molecular target: Mitogen-activated protein kinase kinase kinase 9 (Homo sapiens) (UniProt P80192); conditions: Compound concentration 1000.0 nM
[3] = molecular target: SRSF protein kinase 1 (Homo sapiens) (UniProt Q96SB4); conditions: Compound concentration 1000.0 nM
[4] = tested on: Proto-oncogene tyrosine-protein kinase receptor Ret (Homo sapiens), P07949 [V804M]; conditions: Compound concentration 1000.0 nM
[5] = molecular target: T1, 5-hydroxytryptamine receptor 2C (Homo sapiens) (UniProt P28335); conditions: Compound concentration 10.0 uM
T1 sequence (whole entry): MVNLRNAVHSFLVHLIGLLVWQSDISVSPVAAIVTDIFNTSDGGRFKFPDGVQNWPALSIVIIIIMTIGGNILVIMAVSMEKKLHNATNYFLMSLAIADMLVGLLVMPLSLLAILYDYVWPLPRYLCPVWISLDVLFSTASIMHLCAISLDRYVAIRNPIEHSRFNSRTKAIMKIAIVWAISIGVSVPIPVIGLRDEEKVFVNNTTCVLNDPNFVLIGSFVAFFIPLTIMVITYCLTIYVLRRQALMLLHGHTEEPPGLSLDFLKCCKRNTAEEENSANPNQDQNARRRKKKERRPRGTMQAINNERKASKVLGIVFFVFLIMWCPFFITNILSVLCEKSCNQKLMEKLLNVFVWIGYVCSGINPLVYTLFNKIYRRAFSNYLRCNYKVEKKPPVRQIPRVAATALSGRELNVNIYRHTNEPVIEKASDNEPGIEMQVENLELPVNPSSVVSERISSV

[6] = molecular target: Serine/threonine-protein kinase 3 (Homo sapiens) (UniProt Q13188); conditions: Compound concentration 1000.0 nM
[7] = tested on: Tyrosine-protein kinase ABL1 (Homo sapiens), P00519 [F317I]; conditions: Compound concentration 1000.0 nM
[8] = molecular target: Myosin light chain kinase (Homo sapiens) (UniProt Q32MK0); conditions: Compound concentration 1000.0 nM
[9] = molecular target: 5-hydroxytryptamine receptor 6 (Homo sapiens) (UniProt P50406); conditions: Compound concentration 10.0 uM
[10] = molecular target: Ankyrin repeat and protein kinase domain-containing protein 1 (Homo sapiens) (UniProt Q8NFD2); conditions: Compound concentration 1000.0 nM
[11] = molecular target: 5-hydroxytryptamine receptor 5A (Homo sapiens) (UniProt P47898); conditions: Compound concentration 10.0 uM
[12] = molecular target: Histamine H1 receptor (Homo sapiens) (UniProt P35367); conditions: Compound concentration 10.0 uM
[13] = molecular target: Cystic fibrosis transmembrane conductance regulator (Homo sapiens, UniProt P13569); experiment: CSE-HRP cell viability (Cell surface expression-horseradish peroxidase) assay
[14] = molecular target: Mitogen-activated protein kinase kinase kinase kinase 4 (Homo sapiens) (UniProt O95819); conditions: Compound concentration 1000.0 nM
[15] = molecular target: Sodium-dependent dopamine transporter (Homo sapiens) (UniProt Q01959); conditions: Compound concentration 10.0 uM
[16] = molecular target: T2, Muscarinic acetylcholine receptor M2 (Homo sapiens) (UniProt P08172); conditions: Compound concentration 10.0 uM
T2 sequence (whole entry): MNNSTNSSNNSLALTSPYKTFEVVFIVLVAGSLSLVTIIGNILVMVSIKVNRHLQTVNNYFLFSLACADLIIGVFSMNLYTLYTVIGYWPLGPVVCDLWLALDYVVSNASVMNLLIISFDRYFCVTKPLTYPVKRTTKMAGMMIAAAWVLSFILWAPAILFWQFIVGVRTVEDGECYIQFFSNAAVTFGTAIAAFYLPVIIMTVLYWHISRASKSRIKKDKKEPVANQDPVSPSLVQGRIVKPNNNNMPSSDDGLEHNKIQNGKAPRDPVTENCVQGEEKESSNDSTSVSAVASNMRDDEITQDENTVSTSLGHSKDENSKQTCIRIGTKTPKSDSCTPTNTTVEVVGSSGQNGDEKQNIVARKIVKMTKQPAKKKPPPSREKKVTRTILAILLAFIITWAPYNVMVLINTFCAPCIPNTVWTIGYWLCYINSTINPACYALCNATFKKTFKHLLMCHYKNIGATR

[17] = molecular target: Sigma non-opioid intracellular receptor 1 (Homo sapiens, UniProt Q99720); experiment: GPCRScan assay: inhibition of Sigma 1; parameters: radioligand conc. used [nm] 4.0 – 5.0, parental cells HEKT
[18] = molecular target: D(3) dopamine receptor (Homo sapiens) (UniProt P35462); conditions: Compound concentration 10.0 uM
[19] = molecular target: Epidermal growth factor receptor (Homo sapiens) (UniProt P00533); conditions: Compound concentration 1000.0 nM
[20] = molecular target: Serine/threonine-protein kinase Nek2 (Homo sapiens) (UniProt P51955); conditions: Compound concentration 1000.0 nM
[21] = molecular target: 5-hydroxytryptamine receptor 1B (Homo sapiens) (UniProt P28222); conditions: Compound concentration 10.0 uM
[22] = molecular target: Protein kinase C delta type (Homo sapiens) (UniProt Q05655); conditions: Compound concentration 1000.0 nM
[23] = molecular target: Death-associated protein kinase 1 (Homo sapiens) (UniProt P53355); conditions: Compound concentration 1000.0 nM
[24] = molecular target: Serine/threonine-protein kinase PAK 6 (Homo sapiens) (UniProt Q9NQU5); conditions: Compound concentration 1000.0 nM
[25] = molecular target: Cyclin-G-associated kinase (Homo sapiens) (UniProt O14976); conditions: Compound concentration 1000.0 nM
[26] = molecular target: Sodium-dependent serotonin transporter (Homo sapiens) (UniProt P31645); conditions: Compound concentration 10.0 uM
[27] = molecular target: 5-hydroxytryptamine receptor 1E (Homo sapiens) (UniProt P28566); conditions: Compound concentration 10.0 uM
[28] = molecular target: Histamine H3 receptor (Homo sapiens) (UniProt Q9Y5N1); conditions: Compound concentration 10.0 uM

Chain of Ankyrin repeat and protein kinase domain-containing protein 1 (Homo sapiens) (Q8NFD2 whole entry, the tested form may be a part): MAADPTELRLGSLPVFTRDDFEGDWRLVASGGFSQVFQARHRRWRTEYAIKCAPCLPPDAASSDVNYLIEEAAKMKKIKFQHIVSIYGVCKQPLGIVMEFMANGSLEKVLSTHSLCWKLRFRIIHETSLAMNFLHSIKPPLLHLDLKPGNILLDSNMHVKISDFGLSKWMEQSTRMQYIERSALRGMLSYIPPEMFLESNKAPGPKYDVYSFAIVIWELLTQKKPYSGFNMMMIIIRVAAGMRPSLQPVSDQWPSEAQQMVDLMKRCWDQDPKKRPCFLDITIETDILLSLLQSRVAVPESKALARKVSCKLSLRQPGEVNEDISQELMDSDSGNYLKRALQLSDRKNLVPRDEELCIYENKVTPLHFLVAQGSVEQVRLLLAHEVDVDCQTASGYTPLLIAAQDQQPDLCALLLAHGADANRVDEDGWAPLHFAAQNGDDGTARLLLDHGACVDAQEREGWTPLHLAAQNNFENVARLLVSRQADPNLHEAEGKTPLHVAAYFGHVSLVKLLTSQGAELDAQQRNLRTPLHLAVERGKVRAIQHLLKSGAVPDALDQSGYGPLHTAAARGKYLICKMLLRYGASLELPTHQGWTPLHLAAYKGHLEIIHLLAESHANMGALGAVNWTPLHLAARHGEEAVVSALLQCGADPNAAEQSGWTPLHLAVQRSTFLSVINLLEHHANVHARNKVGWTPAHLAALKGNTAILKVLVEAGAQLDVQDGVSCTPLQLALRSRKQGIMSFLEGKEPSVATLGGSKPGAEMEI
Chain of Serine/threonine-protein kinase 3 (Homo sapiens) (Q13188 whole entry): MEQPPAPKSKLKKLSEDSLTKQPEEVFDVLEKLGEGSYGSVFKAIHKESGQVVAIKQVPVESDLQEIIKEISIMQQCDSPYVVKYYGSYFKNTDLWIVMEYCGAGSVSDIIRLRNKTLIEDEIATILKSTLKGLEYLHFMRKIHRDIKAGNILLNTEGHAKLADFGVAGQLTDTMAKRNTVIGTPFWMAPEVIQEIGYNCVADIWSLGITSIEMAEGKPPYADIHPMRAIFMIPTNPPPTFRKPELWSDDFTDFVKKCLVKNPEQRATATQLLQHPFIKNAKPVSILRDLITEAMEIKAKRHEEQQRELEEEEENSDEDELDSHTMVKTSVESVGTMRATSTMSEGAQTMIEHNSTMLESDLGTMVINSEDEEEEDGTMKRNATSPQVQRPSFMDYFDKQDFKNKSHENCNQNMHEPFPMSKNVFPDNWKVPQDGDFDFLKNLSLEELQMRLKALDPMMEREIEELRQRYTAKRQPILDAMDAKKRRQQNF
Chain of Sigma non-opioid intracellular receptor 1 (Q99720 whole entry): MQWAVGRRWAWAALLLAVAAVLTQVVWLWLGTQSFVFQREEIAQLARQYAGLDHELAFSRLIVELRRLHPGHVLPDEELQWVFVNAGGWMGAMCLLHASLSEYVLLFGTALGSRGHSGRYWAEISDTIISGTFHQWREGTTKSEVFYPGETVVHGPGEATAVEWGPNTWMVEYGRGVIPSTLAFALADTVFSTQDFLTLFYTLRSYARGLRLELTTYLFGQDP
Chain of Cyclin-G-associated kinase (Homo sapiens) (O14976 whole entry): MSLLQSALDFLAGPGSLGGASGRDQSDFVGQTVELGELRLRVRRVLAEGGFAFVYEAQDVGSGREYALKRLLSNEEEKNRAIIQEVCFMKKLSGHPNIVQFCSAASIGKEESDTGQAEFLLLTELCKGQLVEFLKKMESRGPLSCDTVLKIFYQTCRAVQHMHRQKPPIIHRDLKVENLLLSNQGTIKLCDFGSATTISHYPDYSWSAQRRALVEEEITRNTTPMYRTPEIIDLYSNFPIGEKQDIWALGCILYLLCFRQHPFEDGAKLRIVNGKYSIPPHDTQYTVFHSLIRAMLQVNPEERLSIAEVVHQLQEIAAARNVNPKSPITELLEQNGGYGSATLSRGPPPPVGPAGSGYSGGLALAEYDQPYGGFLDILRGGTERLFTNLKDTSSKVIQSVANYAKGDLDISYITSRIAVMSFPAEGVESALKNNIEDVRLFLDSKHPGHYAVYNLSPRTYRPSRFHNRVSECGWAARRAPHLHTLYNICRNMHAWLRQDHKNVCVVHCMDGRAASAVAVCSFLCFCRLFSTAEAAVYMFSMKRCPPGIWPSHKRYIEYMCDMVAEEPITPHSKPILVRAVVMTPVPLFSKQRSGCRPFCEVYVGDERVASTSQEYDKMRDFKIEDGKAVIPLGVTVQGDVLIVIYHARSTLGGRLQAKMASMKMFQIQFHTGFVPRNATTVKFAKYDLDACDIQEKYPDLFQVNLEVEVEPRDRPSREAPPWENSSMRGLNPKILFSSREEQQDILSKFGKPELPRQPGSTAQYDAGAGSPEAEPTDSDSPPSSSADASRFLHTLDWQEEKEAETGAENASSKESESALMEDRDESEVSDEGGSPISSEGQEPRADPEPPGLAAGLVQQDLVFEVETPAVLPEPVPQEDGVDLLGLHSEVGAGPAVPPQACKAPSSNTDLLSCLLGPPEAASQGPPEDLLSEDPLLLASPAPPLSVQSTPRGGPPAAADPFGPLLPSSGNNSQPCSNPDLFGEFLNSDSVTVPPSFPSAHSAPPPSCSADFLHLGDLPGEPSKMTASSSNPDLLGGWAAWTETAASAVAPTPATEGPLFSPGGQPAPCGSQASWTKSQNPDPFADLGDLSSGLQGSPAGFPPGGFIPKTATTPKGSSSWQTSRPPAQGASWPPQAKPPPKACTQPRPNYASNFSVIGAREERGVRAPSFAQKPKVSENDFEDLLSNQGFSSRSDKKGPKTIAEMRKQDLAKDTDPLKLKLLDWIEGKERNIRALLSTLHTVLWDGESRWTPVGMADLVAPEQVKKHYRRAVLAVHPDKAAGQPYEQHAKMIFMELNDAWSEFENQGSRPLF
Chain of Tyrosine-protein kinase ABL1 (Homo sapiens), P00519 [F317I] (P00519 whole entry F317I): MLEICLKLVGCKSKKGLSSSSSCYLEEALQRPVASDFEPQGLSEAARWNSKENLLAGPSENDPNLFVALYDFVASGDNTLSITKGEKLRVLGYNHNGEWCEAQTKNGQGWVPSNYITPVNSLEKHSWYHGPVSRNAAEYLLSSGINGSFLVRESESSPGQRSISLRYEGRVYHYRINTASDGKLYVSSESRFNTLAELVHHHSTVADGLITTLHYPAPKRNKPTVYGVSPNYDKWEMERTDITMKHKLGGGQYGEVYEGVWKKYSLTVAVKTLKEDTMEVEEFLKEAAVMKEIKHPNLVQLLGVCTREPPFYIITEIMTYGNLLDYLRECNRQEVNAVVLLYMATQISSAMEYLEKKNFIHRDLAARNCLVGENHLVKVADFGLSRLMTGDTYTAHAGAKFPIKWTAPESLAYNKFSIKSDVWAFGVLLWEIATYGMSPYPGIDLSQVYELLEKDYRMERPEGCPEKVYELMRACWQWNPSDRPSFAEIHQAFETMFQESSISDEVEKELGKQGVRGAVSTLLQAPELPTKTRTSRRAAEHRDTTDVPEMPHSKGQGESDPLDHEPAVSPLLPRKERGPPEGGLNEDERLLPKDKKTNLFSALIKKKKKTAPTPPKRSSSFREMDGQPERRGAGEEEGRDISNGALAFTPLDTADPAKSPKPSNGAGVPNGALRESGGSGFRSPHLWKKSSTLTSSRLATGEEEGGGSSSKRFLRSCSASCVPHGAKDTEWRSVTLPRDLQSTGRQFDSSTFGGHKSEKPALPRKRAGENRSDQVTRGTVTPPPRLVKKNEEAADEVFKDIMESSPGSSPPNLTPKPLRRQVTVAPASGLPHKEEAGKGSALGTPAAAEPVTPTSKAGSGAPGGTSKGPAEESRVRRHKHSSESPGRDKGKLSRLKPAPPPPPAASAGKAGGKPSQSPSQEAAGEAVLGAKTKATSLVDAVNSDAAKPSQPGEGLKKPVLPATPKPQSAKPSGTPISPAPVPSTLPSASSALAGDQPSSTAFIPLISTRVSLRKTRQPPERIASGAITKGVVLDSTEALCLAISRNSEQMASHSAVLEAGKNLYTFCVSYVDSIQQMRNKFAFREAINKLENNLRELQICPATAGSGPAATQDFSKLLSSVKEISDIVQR
Chain of Serine/threonine-protein kinase/endoribonuclease IRE1 (Homo sapiens) (O75460 19-977 limits assumed): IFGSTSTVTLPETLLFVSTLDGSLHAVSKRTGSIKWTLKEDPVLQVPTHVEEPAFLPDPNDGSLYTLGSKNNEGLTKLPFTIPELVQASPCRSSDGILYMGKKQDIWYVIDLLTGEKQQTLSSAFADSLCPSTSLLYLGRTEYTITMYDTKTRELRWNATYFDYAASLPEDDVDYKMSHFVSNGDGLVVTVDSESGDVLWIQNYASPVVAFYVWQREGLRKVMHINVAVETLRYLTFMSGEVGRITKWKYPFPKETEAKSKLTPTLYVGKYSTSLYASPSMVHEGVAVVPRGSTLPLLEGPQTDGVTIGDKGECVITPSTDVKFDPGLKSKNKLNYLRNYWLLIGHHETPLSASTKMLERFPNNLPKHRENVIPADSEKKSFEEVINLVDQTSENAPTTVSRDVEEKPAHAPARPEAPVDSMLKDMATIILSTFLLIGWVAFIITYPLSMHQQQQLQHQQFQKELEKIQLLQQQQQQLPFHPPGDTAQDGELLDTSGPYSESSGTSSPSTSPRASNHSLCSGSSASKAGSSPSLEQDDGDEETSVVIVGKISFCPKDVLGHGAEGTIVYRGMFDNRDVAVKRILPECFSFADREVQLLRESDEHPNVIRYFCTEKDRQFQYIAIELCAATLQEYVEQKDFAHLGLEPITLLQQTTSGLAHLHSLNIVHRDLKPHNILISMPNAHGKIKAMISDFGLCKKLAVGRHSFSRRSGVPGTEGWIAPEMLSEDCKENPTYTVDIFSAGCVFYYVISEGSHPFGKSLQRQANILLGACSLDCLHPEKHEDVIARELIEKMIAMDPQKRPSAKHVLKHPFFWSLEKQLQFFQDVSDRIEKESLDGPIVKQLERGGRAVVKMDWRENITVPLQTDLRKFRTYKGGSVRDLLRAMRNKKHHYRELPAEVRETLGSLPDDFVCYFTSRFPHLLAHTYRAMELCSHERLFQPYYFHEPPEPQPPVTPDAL

SMILES: COc1ccc2c(c1)O[C@@H](c1ccc(OC)c(OC)c1)C[C@H]2NC(=O)C1(c2ccc3c(c2)OC(F)(F)O3)CC1 [A-1596586]
- residual activity [1]: 100%
- residual activity [2]: 100%
- residual activity [3]: 95%
- residual activity [4]: 95%
- inhibition [5]: -2.28%
- residual activity [6]: 96%
- residual activity [7]: 78%
- residual activity [8]: 95%
- inhibition [9]: -7.58%
- residual activity [10]: 76%
- inhibition [11]: -7.95%
- inhibition [12]: 22.3%
- EC50 [13]: > 20 µM (not active)
- residual activity [14]: 100%
- inhibition [15]: 6.33%
- inhibition [16]: -9.38%
- Ki [17]: 0.315 µM
- inhibition [18]: -1.53%
- residual activity [19]: 96%
- residual activity [20]: 97%
- inhibition [21]: -0.84%
- residual activity [22]: 100%
- residual activity [23]: 99%
- residual activity [24]: 79%
- residual activity [25]: 100%

SMILES: COc1ccc2c(c1)O[C@H](c1ccc(OC)c(OC)c1)C[C@@H]2NC(=O)C1(c2ccc3c(c2)OC(F)(F)O3)CC1 [A-1596584]
- residual activity [1]: 100%
- residual activity [2]: 93%
- residual activity [3]: 100%
- residual activity [4]: 100%
- inhibition [26]: 5.75%
- residual activity [6]: 100%
- residual activity [7]: 100%
- residual activity [8]: 95%
- residual activity [10]: 100%
- inhibition [12]: 49.9%
- EC50 [13]: > 20 µM (not active)
- inhibition [27]: 1.27%
- residual activity [14]: 100%
- Ki [17]: 2.74 µM
- inhibition [18]: -9.23%
- residual activity [19]: 92%
- residual activity [20]: 100%
- inhibition [21]: -1%
- residual activity [22]: 100%
- residual activity [23]: 100%
- inhibition [28]: 10.4%
- residual activity [24]: 100%
- residual activity [25]: 100%

From ChEMBL document CHEMBL4507262, “Data for DCP probe A-1596586” (2021)
